Reference: US6372297B1, “Wood preservative oxathiazines” (Uniroyal Chemical Company, Inc., priority 1993, dated 2002)
In brackets after ≈: the same amount, converted by molar mass. Like-named read-outs stand apart in the source and are kept apart here.

How the values were obtained:
[1] = system: molds and blue-stain fungi; assay: In vitro activity against molds and blue-stain fungi, poison plate assay (MIC); format: cell-based; conditions: malt extract agar, complete inhibition
Experimental: The effect of the representative compounds on the growth of certain molds and blue-strain fungi were determined using a poison plate assay according to the following procedure: The solutions of the representative compounds prepared above were further diluted with sterile water to desired concentrations and poured into Petri dishes. Malt extract agar medium was then added aseptically to the Petri dishes and to Petri dishes containing no compound (controls). The Petri dishes were then shaken to provide a uniform distribution of the agar medium. Each Petri dish containing compound and each control Petri dish, was then inoculated with a fungus and incubated for a period of time sufficient to permit complete growth of the fungus in the respective control Petri dish. The Petri dishes containing compound were then examined to determine the amount of inhibition of fungi for each concentration of compound tested.

[2] = system: blue-stain fungi and molds; assay: Activity against blue-stain fungi and molds in a stick test (threshold concentrations); conditions: beech sticks, 22° C., 90% relative humidity
Procedure, shortened: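 Wood sticks soaked 3 h in compound serially diluted in 50% ethanol, dried, then inoculated with fungal or spore suspension. Incubated at 22° C and 90% relative humidity until untreated controls grew, then growth scored 0 (none) to 4 (>50% surface covered).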

O=S1(=O)CCON=C1c1ccc(Cl)s1 [Compound 61, 3-(5-chloro-2-thienyl)-5,6-dihydro-1,4,2-oxathiazine-4,4-dioxide]
MIC ([1]; A. amstelodami, read-out: MIC (ppm) against A. amstelodami): 5 µg/mL (≈ 19.9 µM)
MIC ([1]; Aspergillus niger, A. niger, read-out: MIC (ppm) against A. niger): < 1 µg/mL
MIC ([1]; Aspergillus versicolor, A. versicolor, read-out: MIC (ppm) against A. versicolor): 2.5 µg/mL (≈ 9.93 µM)
MIC ([1]; Aureobasidium pullulans, A. pullulans, read-out: MIC (ppm) against A. pullulans): 10 µg/mL (≈ 39.7 µM)
MIC ([1]; C. pilifera, read-out: MIC (ppm) against C. pilifera): 2.5 µg/mL (≈ 9.93 µM)
MIC ([1]; Cladosporium cladosporioides, C. cladosporioides, read-out: MIC (ppm) against C. cladosporioides): 10 µg/mL (≈ 39.7 µM)
MIC ([1]; Fusarium solani, F. solani, read-out: MIC (ppm) against F. solani): 5 µg/mL (≈ 19.9 µM)
MIC ([1]; Geotrichum candidum, G. candidum, read-out: MIC (ppm) against G. candidum): 10 µg/mL (≈ 39.7 µM)
MIC ([1]; P. purpurogenum, read-out: MIC (ppm) against P. purpurogenum): 5 µg/mL (≈ 19.9 µM)
MIC ([1]; P. violacea, read-out: MIC (ppm) against P. violacea): 25 µg/mL (≈ 99.3 µM)
MIC ([1]; Paecilomyces variotii, P. variotii, read-out: MIC (ppm) against P. variotii): 5 µg/mL (≈ 19.9 µM)
MIC ([1]; S. atra, read-out: MIC (ppm) against S. atra): 2.5 µg/mL (≈ 9.93 µM)
MIC ([1]; S. entoxylina, read-out: MIC (ppm) against S. entoxylina): 10 µg/mL (≈ 39.7 µM)
MIC ([1]; Trichoderma viride, T. viride, read-out: MIC (ppm) against T. viride): 10 µg/mL (≈ 39.7 µM)
MIC ([1]; U. atrum, read-out: MIC (ppm) against U. atrum): 10 µg/mL (≈ 39.7 µM)
Threshold concentration (ppm), A. niger, score 0 ([2]; A. niger, minimum concentration to obtain score 0): <250 ppm
Threshold concentration (ppm), A. niger, score 1-2 ([2]; A. niger, minimum concentration to obtain score 1-2): <250 ppm
Threshold concentration (ppm), Aureobasidium, score 0 ([2]; Aureobasidium, minimum concentration to obtain score 0): >1000 ppm
Threshold concentration (ppm), Aureobasidium, score 1-2 ([2]; Aureobasidium, minimum concentration to obtain score 1-2): 250-500 ppm
Threshold concentration (ppm), Sclerophoma, score 0 ([2]; Sclerophoma, minimum concentration to obtain score 0): 100 ppm
Threshold concentration (ppm), Sclerophoma, score 1-2 ([2]; Sclerophoma, minimum concentration to obtain score 1-2): <50 ppm
Threshold concentration (ppm), Trichoderma, score 0 ([2]; Trichoderma, minimum concentration to obtain score 0): 2500 ppm
Threshold concentration (ppm), Trichoderma, score 1-2 ([2]; Trichoderma, minimum concentration to obtain score 1-2): 1000-2500 ppm
melting point: 113 to 114 °C
